In patent US8421457B2, “Methods and systems for magnetically resonating both a subject and a substance administered to the subject” (Applied Magnetics, LLC, priority 2008, dated 2013):

Experiments:
[1] = test system: fibromyalgia patients; test: Case reports: fibromyalgia, drugs combined with MR treatment; assay type: in vivo, human
Procedure: In one example, a person experienced fibromyalgia for a number of years. The subject also experienced insomnia, restless legs, and chronic fatigue. The subject took the drug Naproxen (Aleve). The subject received seven consecutive days of 1 to 1.5 hour treatments.
Their primary complaint was back pain. […] The subject received thirteen treatments within a two-month period. […] Approximately two months after completing their first series of treatment, they began a second regimen of ten treatments within a two-month period.
In a further example, a person at least fifty years old suffered from fibromyalgia for a number of years. […] The subject received daily (when possible) treatments for approximately one year.

[2] = test system: osteoarthritis patients; settings: person
Source text: In one example, a person suffered from back pain due to degenerative disk disease in their low back and sciatica. […] The subject was resonated approximately three times per week for more than one year.
In another example, a person experienced arthritis pain in a number of joints, including their hips, hands, and shoulders. The subject also suffered from sciatica in their hips and legs. The subject was taking Celebrex. The subject was resonated at least three times per week for one to two hours per session.
In a further example, a person experienced osteoarthritis pain and stiffness in their hands and finger joints. […] The subject was resonated twice for one-half hour per treatment. The subject was asked to rate their pain on a scale of zero (feels great) to ten (feels terrible) before and after treatment.
Alternatively, an amplitude of about 0.01 μG to about 0.46 μG, with a frequency of about 0.2799 Hz to about 12.8765 Hz may be used.

[3] = test system: Parkinson's patient; test: Average off time of Levodopa, baseline versus MR treatment; assay type: in vivo, human; settings: for % Improved: MR result vs baseline
Source text: In the example of Table 1, the MR analysis algorithm 166 has performed a query, for example, on the terms “Indication=Parkinson's” in combination with “Substance=Levodopa,” in order to produce one or more records of one or more subjects of one or more treatment events. Subsequently, the selected magnetic resonance treatment regimen may be transmitted from the MR system server 160 to the client computer 120. The operator 138 then may carry out the treatment regimen upon the subject 150 according to the recommended treatment regimen. For example, the recommended magnetic resonance treatment regimen may specify a certain number and frequency of treatment events, wherein for each treatment an amount of a certain substance is administered to the body of the subject, and the subject is then resonated with electromagnetic energy of a certain flux density and certain frequency for a certain amount of time. Subsequent to each magnetic resonance treatment, all related data is updated locally at the client computer 120 and/or remotely at the MR system server 160. Using the example of a subject 150 that has Parkinson's disease, a side effect of certain Parkinson's drugs may be involuntary movements called dyskinesias. Therefore, an example of results that may be logged in treatment data 137 may be observations as to the amount of time from beginning of treatment to the onset of dyskinesias, which is an indication as to the amount of time that it has taken for the substance 152 to enter the subject's body systems. Other observable effects of the MR treatment after the substance 152 that has been administered to the subject's body systems may be a reduction in off time of the drug, a reduction in tremors, and a reduction in joint stiffness.

[4] = test system: Parkinson's patient; test: Onset of dyskinesias after Levodopa, with and without magnetic resonance (MR) treatment; assay type: in vivo, human; settings: for % Improved: MR result vs baseline; for MR Result Onset of Dyskinesias: MR whole body immersion (7′)
Procedure: Subsequently, the selected magnetic resonance treatment regimen may be transmitted from the MR system server 160 to the client computer 120. The operator 138 then may carry out the treatment regimen upon the subject 150 according to the recommended treatment regimen. For example, the recommended magnetic resonance treatment regimen may specify a certain number and frequency of treatment events, wherein for each treatment an amount of a certain substance is administered to the body of the subject, and the subject is then resonated with electromagnetic energy of a certain flux density and certain frequency for a certain amount of time. Subsequent to each magnetic resonance treatment, all related data is updated locally at the client computer 120 and/or remotely at the MR system server 160.

[5] = test system: migraine and headache patients; test: Case reports: migraine and headache drugs combined with MR treatment; assay type: in vivo, human; settings: for results on migraines / pain level before being resonated / reduction in pain level: person with migraines taking the drugs; for results on migraines: resonated ten times, 1 to 1.5 hours, over one month; for pain level before being resonated / pain level after treatment: scale of zero to ten; for reduction in pain level: two one-hour MR treatments three months apart; for pain level after treatment: same subject, after ten MR treatments over one month
Procedure: The subject was resonated ten times for 1 to 1.5 hours per treatment over a one-month period.
In another example, a person experienced pain associated with migraines. […] The subject received two one-hour treatments three months apart.
In a further example, a person experienced pain associated with severe headaches. The subject took Aspirin to treat the pain. The subject received one treatment for one hour.

[6] = test system: patients with prostate problems, such as an enlarged prostate; test: Case report: enlarged prostate drugs combined with MR treatment; assay type: in vivo, human; settings: for PSA count, last measurement before MR treatment: person, enlarged prostate for fifteen years, taking the drugs; for PSA count after eighteen months of treatment / prostate size after eighteen months of treatment: same subject, three MR treatments per week
Procedure: In one example, a person had been diagnosed with an enlarged prostate for fifteen years and their PSA count was rising (the last measurement was 2.35). The subject was taking the drugs Avodart and Flomax. The subject began a series of three treatments per week for […], and continuing on an ongoing basis.
In providing MR treatment to a subject with prostate problems, an amplitude of about 0.01 μG to about 0.4 μG, with a frequency of about 0.2799 Hz to about 11.197 Hz may be used.

[7] = same subject, thirteen MR treatments within a two-month period

Compound: CCOC(=O)N1CCC(=C2c3ccc(Cl)cc3CCc3cccnc32)CC1 [Claritin]
- pain level after treatment, first series [1, 7]: 0.5

Compound: CN1CC[C@]23c4c5ccc(O)c4O[C@H]2[C@@H](O)C=C[C@H]3[C@H]1C5 [Morphine]
- pain level after treatment, first series ([1]; in vivo): 0.5

Compound: Cc1ccc(-c2cc(C(F)(F)F)nn2-c2ccc(S(N)(=O)=O)cc2)cc1 [Celebrex]
- results of treatment ([2]; arthritis pain and sciatica, taking Celebrex, resonated at least three times per week, one to two hours per session): a reduction in dosage and frequency of taking Celebrex, decreased pain, improved mobility, and improved sleep

Compound: N[C@@H](Cc1ccc(O)c(O)c1)C(=O)O [Levodopa]
- % Improved ([3]; Record # 4752: average off time, Levodopa 50 mg): 17%
- Baseline Average off time ([3]; Record # 4752: subject W-65, Parkinson's, Levodopa 50 mg ingested): Average off time 6 hours
- MR Result Average off time ([3]; Record # 4752: subject W-65, Levodopa 50 mg ingested, MR partial immersion (4′), 0.0697 microgauss, 1.9 Hz, sinusoidal, 90 mins): Average off time 5 hours
- % Improved ([3]; Record # 5942: average off time, Levodopa 25 mg): 33%
- Baseline Average off time ([3]; Record # 5942: subject AA-35, Parkinson's, Levodopa 25 mg ingested): Average off time 6 hours
- MR Result Average off time ([3]; Record # 5942: subject AA-35, Levodopa 25 mg ingested, MR partial immersion (22″), 0.0717 microgauss, 1.8 Hz, triangle, 70 mins): Average off time 4 hours
- time from consuming Levodopa to dyskinesias ([4]; Example 1, Parkinson's patient, no magnetic resonance): about 38 minutes
- time from consuming Levodopa to dyskinesias ([4]; Example 1, same Parkinson's patient, substantially the same dosage, then receives magnetic resonance): about 22 minutes
- absorption rate and efficacy of Levodopa on resonating the patient ([4]; Parkinson's patient resonated after consuming Levodopa): improved the absorption rate of Levodopa
- % Improved ([4]; Record # 1265: onset of dyskinesias, Levodopa 25 mg): 42%
- Baseline Onset of Dyskinesias ([4]; Record # 1265: subject A-84, Parkinson's, Levodopa 25 mg ingested): Onset of Dyskinesias 38 mins
- MR Result Onset of Dyskinesias ([4]; Record # 1265: subject A-84, Levodopa 25 mg ingested, 0.0667 microgauss, 2.0 Hz, square, 60 mins): Onset of Dyskinesias 22 mins
- % Improved ([4]; Record # 7508: onset of dyskinesias, Levodopa 50 mg): 37%
- Baseline Onset of Dyskinesias ([4]; Record # 7508: subject W-65, Parkinson's, Levodopa 50 mg ingested): Onset of Dyskinesias 43 mins
- MR Result Onset of Dyskinesias ([4]; Record # 7508: subject W-65, Levodopa 50 mg ingested, 0.0697 microgauss, 1.9 Hz, sinusoidal, 80 mins): Onset of Dyskinesias 27 mins

Compound: NS(=O)(=O)c1cc2c(cc1Cl)NCNS2(=O)=O [HCTZ]
- pre-treatment pain level, first series ([1]; person, fibromyalgia, back pain, on the listed drugs, before MR): 4
- initial pain level, second series ([1]; same subject, approx. two months after first series, before second regimen): 4
- pain level after treatment, first series [1, 7]: 0.5

Compound: CCN(CC)CC(=O)Nc1c(C)cccc1C [lidoderm]
- pain level after treatment, first series [1, 7]: 0.5

Compound: O=C1CN=C(c2ccccc2Cl)c2cc([N+](=O)[O-])ccc2N1 [Clonazepam]
- pain level after treatment, first series [1, 7]: 0.5

Compound: COc1ccccc1OCC(O)COC(N)=O (stereo not drawn) [Robaxin]
- pain level after treatment, first series [1, 7]: 0.5

Compound: CC(C)C[C@H](CN)CC(=O)O [Lyrica]
- pain level after treatment, first series ([1]; in vivo): 0.5

Compound: CNS(=O)(=O)Cc1ccc2[nH]cc(CCN(C)C)c2c1 [Immitrex]
- results on migraines [5]: decreased frequency and duration of migraines
- pain level before being resonated [5]: nine
- reduction in pain level [5]: 50%
- pain level after treatment [5]: two

Compound: CCOc1ccccc1OCCN[C@H](C)Cc1ccc(OC)c(S(N)(=O)=O)c1 [Flomax]
- PSA count, last measurement before MR treatment [6]: 2.35
- PSA count after eighteen months of treatment [6]: 0.95
- prostate size after eighteen months of treatment [6]: no longer enlarged

Compound: CCC(=O)O[C@]1(C(=O)SCF)[C@H](C)C[C@H]2[C@@H]3C[C@H](F)C4=CC(=O)C=C[C@]4(C)[C@@]3(F)[C@@H](O)C[C@@]21C [Flonase]
- pain level after treatment, first series [1, 7]: 0.5

Compound: C[C@]12C=CC(=O)N[C@@H]1CC[C@@H]1[C@@H]2CC[C@]2(C)[C@@H](C(=O)Nc3cc(C(F)(F)F)ccc3C(F)(F)F)CC[C@@H]12 [Avodart]
- PSA count, last measurement before MR treatment [6]: 2.35
- PSA count after eighteen months of treatment [6]: 0.95
- prostate size after eighteen months of treatment [6]: no longer enlarged

Compound: COc1ccc2cc([C@H](C)C(=O)O)ccc2c1 [Naproxen]
- pain level before treatment ([1]; Person, fibromyalgia, took Naproxen (Aleve)): six
- initial pain levels before treatments ([1]; person, fibromyalgia, taking Naproxen (Aleve), depending on the area of the body): three to seven
- pain after treatment ([1]; same subject, daily (when possible) MR treatments for approximately one year): total elimination of pain
- pain level after completing treatment ([1]; same subject, seven consecutive days of 1 to 1.5 hour MR treatments): zero to one
- results of continuing treatment ([2]; back pain (degenerative disk disease, sciatica), taking the drugs, resonated approx. three times per week for more than one year): significantly less pain, an improved range of motion, and improved sleep

Compound: CC1(C)O[C@@H]2[C@@H](CO[C@@]3(COS(N)(=O)=O)OC(C)(C)O[C@@H]23)O1 [Topomax]
- results on migraines [5]: decreased frequency and duration of migraines
- pain level before being resonated [5]: nine
- reduction in pain level [5]: 50%
- pain level after treatment [5]: two
